{
  "source": "patent US20120122913A1",
  "about": "“COMBINATION OF CURCUMINOIDS AND MTOR INHIBITORS FOR THE TREATMENT OF TAUOPATHIES” (Institut National De La Recherche Scientifque, priority 2009, published 2012)",
  "key": {"[1]": {"system": "Tau protein", "assay": "Total Tau protein level by Western blot in differentiated SH-SY5Y cells exposed to β-amyloid(1-42)", "type": "cell-based, human", "conditions": "48 h", "protocol": "Chemical treatments were initiated and kept for 48 h.\nOn day 8, cells were observed under an inverted microscope to ensure that they are fully adherent and free of microbial contamination. On day 9, Petri dishes were used for Western Blot analyses. […] Cells were then removed with a cell scraper, transferred to a 0.6 ml microtube and kept on ice. Samples were sonicated for 30 seconds and mixed with a vortex for 5 seconds and the procedure was repeated once. Samples obtained were stored at −80 ° C. in aliquots of 20 μl. For SDS-PAGE analysis, samples (20 μl) were mixed with 7.34 μl of 4× SDS gel loading buffer (200 mM Tris-HCl, pH 6.8, 8% SDS, 20% Glycerol, 0.4% bromophenol blue and 400 mM β-mercaptoethanol) and 2 μl of cell lysing buffer, boiled for 10 min, cooled on ice, spun on a microcentrifuge and transferred to wells of an electrophoresis apparatus containing a 4% acrylamide stacking gel and a 8% acrylamide resolving gel. Electrophoresis protein separation was performed overnight using a constant current (40 V). Proteins were transferred to nitrocellulose by electro-blotting in a 20% methanol-transfer buffer with a constant 900 mA current for 90 min. Ponceau Red staining was performed to evaluate the quality of loading and transfer. […] The membrane was then washed 4 times for 5 min each time with TBS-0.1% Tween™, and soaked with the chemiluminescence substrate (Enhanced Luminol™ from PerkinElmer). X-Ray films were exposed to the membranes long enough to optimize each band detection. Band Intensity was quantified using a Fluor-S Multimager™ (Bio-Rad scanner) and the Quantity One™ software (Bio-Rad) and data adjusted with local background."}, "[2]": {"system": "differentiated SH-SY5Y cells", "assay": "MTT cell viability assay in differentiated SH-SY5Y cells exposed to β-amyloid(1-42)", "conditions": "48 h", "procedure": "For the cytotoxicity assay, 48 well-plates were seeded with 180,000 cells and 500 μl of culture medium was added. Five Petri dishes (or 6-well plates) were prepared for each treatment. […] On day 7, the culture medium was removed and changed with a medium free of retinoic acid and FBS, but containing 2 nM of BDNF (Sigma Cat. No. B3795), from a 2 μM master solution in filtered sterile water). Chemical treatments were initiated and kept for 48 h. […] The Human Beta Amyloid (Aβ(1-42), Chemicon Cat. No. AG972) solution was prepared according to the manufacturer's instructions. […] The solution was subsequently diluted in serum-deprived culture medium containing BDNF (2 nM final concentration) to obtain either a 5 nM or 5 μM Aβ(1-42) final concentration.\nIn parallel, on day 9, plates were used for the MTT cell viability assay. A volume of 62.5 μl of a 3-(4,5-Dimethylthiazol-2-yl)-2,5-diphenyltetrazolium bromide (MTT) solution (5 mg/ml in a 1:1 PBS/culture medium) was added, then plates were incubated for 4 h. A volume of 312.5 μl of isopropanol—0.1N HCl was added, then for each well the content was mixed using a pipette (wide bore tip) to solubilize the product. The optical density at 560 nm, which is proportional to the number of living cells, was measured (reference at 690 nm)."}},
  "data": [
    {"smiles": "CO[C@H]1C[C@@H]2CC[C@@H](C)[C@@](O)(O2)C(=O)C(=O)N2CCCC[C@H]2C(=O)O[C@H]([C@H](C)C[C@@H]2CC[C@@H](OCCO)[C@H](OC)C2)CC(=O)[C@H](C)/C=C(\\C)[C@@H](O)[C@@H](OC)C(=O)[C@H](C)C[C@H](C)/C=C/C=C/C=C/1C", "note": "[Everolimus]", "values": [
      {"measurement": "reduction in the total amount of Tau protein as compared to controls", "setting": "[1]; 1 nM Everolimus, 5 μM human β-amyloid(1-42), FIG. 3", "result": 17.2, "unit": "%"},
      {"measurement": "reduction in the total amount of Tau protein as compared to controls", "setting": "[1]; 2 nM Everolimus, 5 nM human β-amyloid(1-42), FIG. 1", "result": 18.7, "unit": "%"},
      {"measurement": "cytotoxicity (cell viability, MTT)", "setting": "[2]; 1 nM Everolimus, 5 μM β-amyloid(1-42), FIG. 4", "result": "none of these three treatments were cytotoxic"},
      {"measurement": "cytotoxicity (cell viability, MTT)", "setting": "[2]; 2 nM Everolimus, 5 nM β-amyloid(1-42), FIG. 2", "result": "none of these three treatments were cytotoxic"}
    ]},
    {"smiles": "CO[C@H]1C[C@@H]2CC[C@@H](C)[C@@](O)(O2)C(=O)C(=O)N2CCCC[C@H]2C(=O)O[C@H]([C@H](C)C[C@@H]2CC[C@@H](OC(=O)C(C)(CO)CO)[C@H](OC)C2)CC(=O)[C@H](C)/C=C(\\C)[C@@H](O)[C@@H](OC)C(=O)[C@H](C)C[C@H](C)/C=C/C=C/C=C/1C", "note": "[Temsirolimus]", "values": [
      {"measurement": "reduction in the total amount of Tau protein as compared to controls", "setting": "[1]; 2 nM Temsirolimus, 5 nM human β-amyloid(1-42), FIG. 5", "result": 5.3, "unit": "%"},
      {"measurement": "cytotoxicity (cell viability, MTT)", "setting": "[2]; 2 nM Temsirolimus, 5 nM β-amyloid(1-42), FIG. 6", "result": "none of these three treatments were cytotoxic"}
    ]},
    {"smiles": "COc1cc(/C=C/C(=O)CC(=O)/C=C/c2ccc(O)c(OC)c2)ccc1O", "note": "[curcumin, (E,E)-1,7-bis(4-Hydroxy-3-methoxyphenyl)-1,6-heptadiene-3,5-dione]", "values": [
      {"measurement": "reduction in the total amount of Tau protein as compared to controls", "setting": "[1]; 10 μM curcumin, 5 μM human β-amyloid(1-42), FIG. 3", "result": 0.5, "unit": "%"},
      {"measurement": "reduction in the total amount of Tau protein as compared to controls", "setting": "[1]; 15 μM curcumin, 5 nM human β-amyloid(1-42), FIG. 5", "result": 6.7, "unit": "%"},
      {"measurement": "reduction in the total amount of Tau protein as compared to controls", "setting": "[1]; 20 μM curcumin, 5 nM human β-amyloid(1-42), FIG. 1", "result": 2.1, "unit": "%"},
      {"measurement": "cytotoxicity (cell viability, MTT)", "setting": "[2]; 10 μM curcumin, 5 μM β-amyloid(1-42), FIG. 4", "result": "none of these three treatments were cytotoxic"},
      {"measurement": "cytotoxicity (cell viability, MTT)", "setting": "[2]; 15 μM curcumin, 5 nM β-amyloid(1-42), FIG. 6", "result": "none of these three treatments were cytotoxic"},
      {"measurement": "cytotoxicity (cell viability, MTT)", "setting": "[2]; 20 μM curcumin, 5 nM β-amyloid(1-42), FIG. 2", "result": "none of these three treatments were cytotoxic"}
    ]}
  ]
}
